Test results published in article PMC7394103 (Frontiers in Pharmacology, 2020).

Legend:
[1] = tested on: IL-6 secretion by monocytic THP-1 cells; assay: IL-1β-induced IL-6 secretion by THP-1 cells (ELISA); type: cell-based; details: Homo sapiens, 30 min compound, then 5 ng/ml IL-1β, 24 h
Method: (§1) FLS, HUVEC, SW982, and THP-1 cells were plated in 96 well plates (10^4 to 10^5 cells/well) for 48 h before treatment. At 2 days post-confluency, the cells were serum-starved and washed twice (with the exception of THP-1 cell, which were not washed) with FBS-free medium prior to the addition of test compounds. The cells were incubated in the presence or absence of test compounds or DMSO (vehicle control) for 30 min at 37°C in a 5% CO2 atmosphere, IL-1β (5 ng/ml) was added, and the cells were incubated for an additional 24 h. Culture supernatants were collected and stored at –80°C. The levels of MMP-1 and MMP-3 were determined in culture supernatants using commercially available ELISA kits according to the manufacturer’s instructions (R&D System, Minneapolis, MN, USA). IL-6 levels were also determined in the supernatants using a human IL-6 ELISA kit (BD Biosciences, San Jose, CA, USA).

[2] = tested on: IL-6 secretion by synovial SW982 cells; assay: IL-1β-induced IL-6 secretion by SW982 cells (ELISA); type: cell-based, human; details: for IC50: Homo sapiens, SW982, 30 min compound, then 5 ng/ml IL-1β, 24 h, read-out: SW982 IL-6 IC50
Method: as §1, with “The cells were incubated in the presence or absence of test compounds or DMSO (vehicle control) for 30 min at 37°C in a 5% CO2 atmosphere, IL-1β (5 ng/ml) was added, and the cells were incubated for an additional 24 h.” left out

[3] = tested on: IL-6 secretion by FLS; assay: IL-1β-induced IL-6 secretion by FLS (ELISA); type: cell-based; details: Homo sapiens; 30 min compound, then 5 ng/ml IL-1β, 24 h
Description: (§2) This study was approved by the Institutional Review Board of University of California, San Diego School of Medicine (La Jolla, CA, USA). Informed consent was obtained from all participants. Anonymous synovial tissue samples were obtained from six patients with RA at the time of total joint replacement (5 females, 1 male; age range, 44–72 years), as previously described ([Alvaro-Gracia et al., 1990]). The diagnosis of RA conformed to American College of Rheumatology 1987 revised criteria ([Arnett et al., 1988]). The synovium was minced and incubated with collagenase type VIII (0.5 mg/ml) (Sigma-Aldrich) in serum-free RPMI-1640 (Life Technologies, Grand Island, NY, USA) for 2 h at 37°C, filtered, extensively washed, and cultured in DMEM (Life Technologies) supplemented with 10% FBS (Gemini Bio Products, Calabasas, CA, USA), penicillin, streptomycin, gentamicin, and glutamine in a humidified 5% CO2 atmosphere. […]
(§3) FLS, HUVEC, SW982, and THP-1 cells were plated in 96 well plates (10^4 to 10^5 cells/well) for 48 h before treatment. […] The levels of MMP-1 and MMP-3 were determined in culture supernatants using commercially available ELISA kits according to the manufacturer’s instructions (R&D System, Minneapolis, MN, USA). IL-6 levels were also determined in the supernatants using a human IL-6 ELISA kit (BD Biosciences, San Jose, CA, USA).

[4] = tested on: MMP-3 secretion by FLS; assay: IL-1β-induced MMP-3 secretion by FLS (ELISA); type: cell-based; details: Homo sapiens; 30 min compound, then 5 ng/ml IL-1β, 24 h
Description: as §2, §3

[5] = Cytotoxicity assay (CellTiter-Glo), HUVEC; type: cell-based; details: human, HUVECs; concentrations up to 50 µM; read-out: Cytotoxic effect HUVEC IC50
Method: Cytotoxicity was analyzed using a CellTiter-Glo Luminescent Cell Viability Assay Kit (Promega), according to the manufacturer’s protocol. Briefly, cells were cultured at a density of 10^4 to 10^5 cells/well with different concentrations of test compounds (final concentration of DMSO was 1%) for the indicated periods of time (2, 12, or 24 h) at 37°C and 5% CO2. Following treatment, substrate was added to the cells, and the samples were analyzed with a Fluoroscan Ascent FL microplate reader.

[6] = tested on: MMP3 gene expression in FLS; assay: MMP3 gene expression in IL-1β-stimulated FLS (qPCR); type: cell-based, human; details: 4, 10, 25 µM, 1 h before IL-1β (2 ng/ml) for 6 h, vs vehicle
Method: For MMP mRNA analysis, FLS were plated in six-well plates, cultured until 80% confluence, and subsequently serum starved (1% FBS/DMEM) for 24 h. […] The mRNA was isolated and reverse transcribed to obtain cDNA. Quantitative real-time polymerase chain reaction was performed using primer probe sets for MMP3 and glyceraldehyde 3-phosphate dehydrogenase (GAPDH) (Life Technologies). Threshold cycle values were obtained and normalized to GAPDH expression.

[7] = tested on: c-Jun phosphorylation in FLS; assay: c-Jun phosphorylation in IL-1β-stimulated FLS (Western blot); type: cell-based, human; details: 1 h pretreatment, 2 ng/ml IL-1β 15 min
Method: Cultured FLS (passage 4) were plated at 2 × 10^5 cells in six-well plates overnight in DMEM containing 10% FBS and synchronized for 24 h in DMEM/0.1% FBS. […] The cells were then washed once with ice-cold PBS and lysed with modified radioimmunoprecipitation assay buffer [50 mM HEPES, pH 7.4, 150 mM NaCl, 1% Triton X-100, 10% glycerol, 2.5 mM MgCl2, 1.0 mM EDTA, 20 mM β-glycerophosphate, 10 mM NaF, 1 mM Na3VO4, and Protease inhibitor cocktail (Roche, Indianapolis, IN)]. Protein concentration of the lysates was measured using a MicroBCA Assay kit (Pierce, Rockford, IL), and 40 μg lysate was subjected to 10% SDS-PAGE and Western blot analysis. Anti–phospho-c-Jun (Ser63) was purchased from Cell Signaling Technology (Danvers, MA), and anti-mouse GAPDH was from Santa Cruz Biotechnology (Santa Cruz, CA).

[8] = tested on: CII-specific Abs in CIA mice; assay: Anti-CII antibody ELISA in serum of CIA mice; type: in vivo; details: 30 mg/kg i.p. daily, day 8 to 42, vs saline
Method: Serum samples from mice with CIA were collected on day 44 after CII injection. Samples of the diluted sera were added to microtiter plates (Greiner Bio-One, Monroe, NC, USA) coated with 2 μg/ml ELISA grade mouse CII (Chondrex). Horseradish peroxidase-conjugated goat […] total IgG, IgG1, IgG2a, IgG2b, and IgG3 (Southern Biotechnology Associates, Birmingham, AL, USA) were used for detection. The samples were developed with 2,2’-azino-bis(3-ethylbenzothiazoline-6-sulphonic acid (Moss Inc., Pasadena, MD, USA), and absorbance was monitored at 415 nm using a SpectraMax Plus microplate reader. Endpoint titer represents reciprocal log 2 for the serum dilution with absorbance ≥ 0.1 above negative control.

[9] = tested on: JNK2; set-up: method as in Schepetkin et al., 2019; details: kinase profiling; ref Schepetkin et al., 2019; cited from earlier work

In the case of `O=C1c2ccccc2-n2c1nc1ccccc1c2=O` [TRYP, indolo[2,1-b]quinazolin-6,12-dione], the IC50 [1] is reported as 9.3 ± 2.7 µM, the “overall inhibition of IL-6 secretion in combination with SP600125” value ([2]; 5 µM TRYP plus SP600125, compared to SP600125 alone) is reported as “acted synergistically” and the IC50 [2] is reported as 2.5 ± 1.1 µM. It also gave an IC50 [3] of 14.8 ± 1.8 µM, an IC50 [4] of 12.7 ± 4.6 µM and an IC50 [5] of 13.8 ± 1.5 µM. The “MMP3 mRNA levels” value [6] was “dose-dependent reduction”, the c-Jun phosphorylation [7] was “had no effect” and the “titers of CII-specific IgG, IgG1, IgG2a, IgG2b, IgG3” value [8] was “significantly lower”. For the same molecule, the “binding affinity for JNK2” value [9] was “no binding affinity”.

Molecule `O=c1c2ccccc2nc2n1-c1ccccc1/C2=N/O` [TRYP-Ox, tryptanthrin-6-oxime] has an IC50 [1] of 0.3 ± 0.12 µM, an IC50 [2] of 0.4 ± 0.2 µM and an IC50 [3] of 7.4 ± 1.2 µM. The IC50 [4] was 3.8 ± 0.4 µM, the IC50 [5] was greater than 50 µM and the “MMP3 mRNA levels” value [6] was “dose-dependent reduction”. The c-Jun phosphorylation [7] was “inhibited c-Jun phosphorylation”, the “titers of CII-specific IgG, IgG1, IgG2a, IgG2b, IgG3” value [8] was “significantly lower” and the “binding affinity for JNK2” value [9] was “high binding affinity”.
